What was measured:
[1] = molecular target: T1, recombinant human mGlu7 receptor (Homo sapiens, UniProt Q14831); experiment: NAM mGlu7 activity, forskolin-induced cAMP (HTRF) in T-REx 293 cell line; format: cell-based; details: T-REx 293 cells expressing human mGlu7; 5 µM LSP4-2022 (EC80), 5 µM forskolin
T1 construct: expressed in transfected cells; host or cells: T-REx 293 (tetracycline-inducible)

CYP1A2 = molecular target: T2, CYP1A2 (Homo sapiens, UniProt P05177); experiment: CYP inhibition assay, recombinant enzyme, fluorescence; format: in vitro ADME; details: test concentrations 1.1, 3.3 and 10 μM; read-out: Cytochrome P450 1A2 IC50
T2 construct: purchased BD Biosciences
T2 sequence (P05177 1-516): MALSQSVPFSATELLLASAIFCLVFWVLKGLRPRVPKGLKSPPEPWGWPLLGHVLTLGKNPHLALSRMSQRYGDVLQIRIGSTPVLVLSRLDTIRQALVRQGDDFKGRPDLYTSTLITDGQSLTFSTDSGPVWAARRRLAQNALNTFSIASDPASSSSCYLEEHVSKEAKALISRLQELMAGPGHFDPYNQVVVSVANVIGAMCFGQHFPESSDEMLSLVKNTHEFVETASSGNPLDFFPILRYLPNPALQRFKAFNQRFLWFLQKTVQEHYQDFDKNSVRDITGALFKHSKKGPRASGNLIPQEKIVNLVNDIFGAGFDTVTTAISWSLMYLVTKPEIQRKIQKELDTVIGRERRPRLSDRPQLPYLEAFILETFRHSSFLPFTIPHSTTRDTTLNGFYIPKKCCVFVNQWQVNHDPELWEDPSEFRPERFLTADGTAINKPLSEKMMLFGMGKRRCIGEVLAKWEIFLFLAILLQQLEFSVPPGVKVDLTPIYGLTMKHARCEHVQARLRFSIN
Protocol: (§1) CYP inhibition was performed with the recombinant enzymes CYP1A2, CYP2B6, CYP2C9, CYP2C19, CYP2D6, and CYP3A4 obtained from BD Biosciences. Compounds for CYP inhibition testing were prepared as 10 mM stock solutions in DMSO. Isoform-specific substrates were incubated at 37 °C individually with P450 enzymes (Table 5) and a range of test compound concentrations (1.1, 3.3 and 10 μM) in duplicate. Each isoform was tested separately with one reference compound, a known positive control inhibitor. During preincubation, the 96-well black plates were scanned with a fluorescence plate reader to eliminate false results originating from the autofluorescence of the test compounds. At the end of the incubation, product formation was monitored with fluorescence detection. A decrease in the formation of the metabolite compared to the “no inhibition” control samples was used to calculate the IC50 value.

CYP2D6 = molecular target: T3, CYP2D6 (Homo sapiens, UniProt P10635); experiment: as above; format: in vitro ADME; details: test concentrations 1.1, 3.3 and 10 μM; read-out: Cytochrome P450 2D6 IC50
T3 construct: purchased BD Biosciences
Protocol: as §1

CYP2B6 = molecular target: T4, CYP2B6 (Homo sapiens, UniProt P20813); experiment: as above; format: in vitro ADME; details: test concentrations 1.1, 3.3 and 10 μM; read-out: Cytochrome P450 2B6 IC50
T4 construct: purchased BD Biosciences
T4 sequence (P20813 1-491): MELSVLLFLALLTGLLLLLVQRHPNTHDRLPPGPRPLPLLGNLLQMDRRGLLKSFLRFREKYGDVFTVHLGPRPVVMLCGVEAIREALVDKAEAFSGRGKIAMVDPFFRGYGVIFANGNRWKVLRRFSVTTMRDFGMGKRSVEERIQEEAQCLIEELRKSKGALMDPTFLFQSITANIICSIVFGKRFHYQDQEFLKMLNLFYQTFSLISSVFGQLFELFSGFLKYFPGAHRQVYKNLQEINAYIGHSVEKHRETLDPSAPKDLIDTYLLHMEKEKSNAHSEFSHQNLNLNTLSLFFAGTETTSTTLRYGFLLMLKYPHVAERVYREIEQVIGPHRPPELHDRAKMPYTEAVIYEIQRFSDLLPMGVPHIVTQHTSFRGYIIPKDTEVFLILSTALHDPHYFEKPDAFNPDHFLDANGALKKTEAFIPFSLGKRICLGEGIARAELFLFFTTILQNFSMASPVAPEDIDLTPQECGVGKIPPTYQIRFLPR
Protocol: as §1

CYP2C19 = molecular target: T5, CYP2C19 (Homo sapiens, UniProt P33261); experiment: as above; format: in vitro ADME; details: test concentrations 1.1, 3.3 and 10 μM; read-out: Cytochrome P450 2C19 IC50
T5 construct: purchased BD Biosciences
Protocol: as §1

T1 sequence (Q14831 35-915): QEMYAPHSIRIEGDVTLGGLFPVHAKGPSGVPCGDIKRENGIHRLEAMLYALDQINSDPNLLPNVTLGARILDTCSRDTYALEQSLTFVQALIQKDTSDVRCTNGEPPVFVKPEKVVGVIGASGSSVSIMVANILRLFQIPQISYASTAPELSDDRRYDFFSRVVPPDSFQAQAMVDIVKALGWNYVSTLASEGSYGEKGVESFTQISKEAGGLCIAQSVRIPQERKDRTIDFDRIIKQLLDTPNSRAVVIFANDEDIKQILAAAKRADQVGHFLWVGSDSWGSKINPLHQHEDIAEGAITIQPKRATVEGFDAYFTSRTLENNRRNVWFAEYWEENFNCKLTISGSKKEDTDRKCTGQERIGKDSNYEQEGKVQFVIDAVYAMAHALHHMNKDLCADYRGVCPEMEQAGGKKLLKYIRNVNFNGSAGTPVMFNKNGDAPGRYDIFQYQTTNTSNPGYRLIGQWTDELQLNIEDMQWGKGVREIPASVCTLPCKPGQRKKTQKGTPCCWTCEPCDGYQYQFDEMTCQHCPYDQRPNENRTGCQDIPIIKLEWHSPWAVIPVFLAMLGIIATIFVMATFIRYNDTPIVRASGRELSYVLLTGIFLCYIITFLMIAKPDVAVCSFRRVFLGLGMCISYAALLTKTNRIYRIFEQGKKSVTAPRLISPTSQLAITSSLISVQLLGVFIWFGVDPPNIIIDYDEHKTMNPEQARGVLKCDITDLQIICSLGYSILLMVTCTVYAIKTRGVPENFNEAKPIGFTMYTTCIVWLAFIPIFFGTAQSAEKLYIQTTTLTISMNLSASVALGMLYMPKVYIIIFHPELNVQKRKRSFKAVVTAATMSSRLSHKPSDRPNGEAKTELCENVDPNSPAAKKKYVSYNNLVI
T3 sequence (P10635 whole entry): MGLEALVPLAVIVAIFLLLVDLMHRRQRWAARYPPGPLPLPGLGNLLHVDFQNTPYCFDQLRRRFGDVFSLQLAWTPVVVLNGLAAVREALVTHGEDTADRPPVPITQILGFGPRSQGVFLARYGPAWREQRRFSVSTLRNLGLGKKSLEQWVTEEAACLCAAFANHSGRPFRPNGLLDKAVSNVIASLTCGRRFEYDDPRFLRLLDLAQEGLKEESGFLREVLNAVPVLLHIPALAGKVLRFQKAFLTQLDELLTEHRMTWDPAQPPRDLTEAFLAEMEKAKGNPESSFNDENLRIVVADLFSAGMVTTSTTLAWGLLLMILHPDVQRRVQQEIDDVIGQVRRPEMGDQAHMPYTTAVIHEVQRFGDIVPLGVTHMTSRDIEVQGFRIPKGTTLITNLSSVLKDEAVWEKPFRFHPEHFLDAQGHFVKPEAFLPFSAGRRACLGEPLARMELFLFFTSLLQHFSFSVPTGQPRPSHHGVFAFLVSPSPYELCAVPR
T5 sequence (P33261 whole entry): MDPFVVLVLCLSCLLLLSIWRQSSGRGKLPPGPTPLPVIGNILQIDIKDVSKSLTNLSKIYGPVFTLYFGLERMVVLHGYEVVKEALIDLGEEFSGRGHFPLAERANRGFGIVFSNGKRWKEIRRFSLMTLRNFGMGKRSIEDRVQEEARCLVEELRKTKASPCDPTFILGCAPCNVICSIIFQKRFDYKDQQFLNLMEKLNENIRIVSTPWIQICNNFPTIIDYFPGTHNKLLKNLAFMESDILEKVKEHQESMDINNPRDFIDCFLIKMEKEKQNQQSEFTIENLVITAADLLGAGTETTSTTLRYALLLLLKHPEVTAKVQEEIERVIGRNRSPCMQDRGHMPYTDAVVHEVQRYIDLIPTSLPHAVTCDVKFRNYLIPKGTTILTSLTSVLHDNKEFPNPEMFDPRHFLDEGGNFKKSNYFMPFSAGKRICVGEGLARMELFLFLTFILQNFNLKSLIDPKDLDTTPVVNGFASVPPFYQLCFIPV

Structure (SMILES) | IC50 [1] [µM] | IC50 (CYP1A2) [µM] | IC50 (CYP2D6) [µM] | IC50 (CYP2B6) [µM] | IC50 (CYP2C19) [µM]
Cn1c(-c2ccccc2Cl)nc2ccc(-c3ccccc3)cc2c1=O [ALX-065, 2-(2-chlorophenyl)-3-methyl-6-phenylquinazolin-4(3H)-one] | 4.65 ± 3.46 | 1.1 to 3.3 | > 10 | > 10 | 1.1 to 3.3
COc1cccc(-c2ccc3nc(-c4ccccc4Cl)n(C)c(=O)c3c2)c1OC [ALX-171, 2-(2-chlorophenyl)-6-(2,3-dimethoxyphenyl)-3-methylquinazolin-4(3H)-one] | 6.14 ± 3.42 | 3.3 to 10 | > 10 | > 10 | 3.3 to 10

From paper PMC9916658, “Design and Synthesis of New Quinazolin-4-one Derivatives with Negative mGlu7 Receptor Modulation Activity and Antipsychotic-Like Properties” (International Journal of Molecular Sciences, 2023)
